This is an account of results in patent US11384071B2, “Inhibitors of mechanotransduction to treat pain and modulate touch perception” (Max-Delbrück-Centrum für Molekulare Medizin in der …, priority 2016, dated 2022).

The test system of the test is cutaneous sensory afferents of the saphenous nerve. Kind of test: Ex vivo skin-nerve preparation after local injection into the paw. The class given is in vivo, mouse. Here is the method: Mice were killed by CO2 inhalation for 2-4 min followed by cervical dislocation. The saphenous nerve and the shaved skin of the hind limb were dissected free and placed in an organ bath. The chamber was perfused with a synthetic interstitial fluid (SIF buffer) the composition of which was (in mM): NaCl, 123; KCl, 3.5; MgSO4, 0.7; NaH2PO4, 1.7; CaCl2), 2.0; sodium gluconate, 9.5; glucose, 5.5; sucrose, 7.5; and HEPES, 10 at a pH of 7.4. The skin was placed with the corium side up in the organ bath. The nerve was placed in an adjacent chamber on a mirror to aid fiber teasing under a stereomicroscope. Fine filaments were teased from the saphenous nerve and placed on the recording electrode.
For the electrical search protocol a micro electrode (1 MΩ) was gently maneuvered to contact the epineurium of the nerve trunk and an electrical stimulation was delivered at a one second interval with square wave pulses of […] duration. […] The electrical nerve stimulation was done at 2 distant sites of the saphenous nerve to trace electrically identified units to their receptive fields. Mechanical sensitivity of single units was tested by mechanical stimulation with a glass rod. For the mechanical search protocol, single units were identified by gentle mechanical stimulation of their receptive field with a glass rod. Mechanically-evoked spikes were visualized and the template saved in an oscilloscope. Then, a sharp tungsten metal electrode was placed in the receptive field and an electrically evoked spike was elicited with suprathreshold current pulses and the electrical latency, the time from the stimulation artifact to spike, was recorded. The distance between the stimulating and recording electrode was designated as the conduction distance. For each isolated fiber the conduction velocity was calculated by dividing conduction distance over electrical latency for the spike.
A computer-controlled nanomotor (Kleindiek, Reutlingen, Germany) was used to apply controlled displacement stimuli of known amplitude and velocity. The probe was a stainless steel metal rod and the diameter of the flat circular contact area was 0.8 mm containing a force transducer (Kleindiek, Reutlingen, Germany). The signal driving the movement of the linear motor and raw electrophysiological data were collected with a Powerlab 4.0 system (ADInstruments) and spikes were discriminated off-line with the spike histogram extension of the software.
We made subcutaneous injections of the OB-1 compound (250-500 pmol per paw) into the hairy skin of the mouse lateral foot innervated by the saphenous nerve and recorded from sensory afferents 3 h later using an ex vivo skin—nerve preparation^5,25.

As to `CCOC(=O)c1c(-c2ccccc2)oc2ccc(Oc3c([N+](=O)[O-])ncn3C)cc12` [OB-1, Ethyl 5-((1-methyl-4-nitro-1H-imidazol-5-yl)oxy)-2-phenylbenzofuran-3-carboxylate], under “8/38 fibers vs 5% in controls, not significantly different”, the “fibers for which no mechanosensitive receptive field could be found (printed Aβ-fibers)” value is 21%. Further, the “Aβ-fibers lacking a mechanosensitive receptive field” value (3 h after 250-500 pmol per paw s.c., 19/44 fibers, vehicle less than 7%) is on record as “over 40%”. In addition, the “proportion of C-fibers that lack a mechanosensitive receptive field” value (3 h after local treatment) was “no change”. In addition, the “firing rates of C-mechanonociceptors (C-Ms) to suprathreshold mechanical stimuli” value (OB-1 treated skin) was “not significantly attenuated”. Further, the “proportion of mechanoreceptor types and mechanosensitivity of remaining Aβ-fiber mechanoreceptors (RAMs, SAMs)” value (OB-1 treated skin vs controls) was “unchanged”. Moreover, the “mechanical threshold for activation of C-mechanoheat fibers” value (OB-1 treated skin, vehicle 106.9±17.4 mN) is recorded as 196.5±35.6 mN. Moreover, where the note is “ascending displacements 32-1024 μm, vs vehicle”, the “stimulus response function of C-MH fibers” value is “significantly less responsive”. Besides, under “displacements 32-1024 μm”, the “mechanosensitivity of A-mechanonociceptors (AM)” value is given as “no changes”. For the setting “female mice as in male mice”, the “proportion of Aβ-fibers insensitive to mechanical stimuli” value is “almost identical proportion”. Besides, the “mean force thresholds for C-M fiber” value (vehicle vs OB-1) is reported as “not different”.
